Experimental data reported in patent US11833160B2, “Ursodeoxycholic acid derivatives as HDAC inhibitors for the treatment of polycystic diseases” (UNIVERSIDAD DEL PAIS VASCO/EUSKAL HERRIKO UNIBERTSITATEA, priority 2017, dated 2023).

Key:
[1] = tested on: polycystic human cholangiocytes; assay: Primary cilium length (cilium staining, confocal microscopy), polycystic cells; format: cell-based; details: after treatment
Protocol: (§1) Cilium staining. Cells cultured on cover slips were washed with PBS, fixed with methanol, and blocked for one hour in a blocking buffer at room temperature. The γ-tubulin primary antibodies (1:100; Sigma-Aldrich, St Louis, MO) and acetylated α-tubulin primary antibodies (1:1000; Sigma-Aldrich) or IFT88 primary antibodies (1:100; ProteinTech, Rosemont, IL, USA) were incubated overnight at 4° C. After washing, Alexa Fluor 594 and 488 secondary antibodies were combined with the primary antibodies (Life Technologies, Carlsbad, CA, USA) and incubated for 2 hours at room temperature. The cover slips were placed on slides with Prolong Gold Antifade with Dapi (Invitrogen, Carlsbad, CA, USA). The slides were observed and images were taken using laser scanning confocal microscopy with a 60× objective (NIKON C1si Confocal Spectral Imaging System, NIKON Instruments Co., Melville, NY, USA). The field was magnified 4× to observe individual cilia. The images were opened with EZ-C1 3.90 Freeviewer and a scale bar was added. The images were converted to Tiff files and quantified using ImageJ Software. The scale bar saved in the image was measured and the scale established. Using the freehand tool, the cilia were traced and measurements taken.

[2] = tested on: normal human cholangiocytes (NHC3); assay: Primary cilium length (cilium staining, confocal microscopy), normal cells; format: cell-based; details: after treatment
Protocol: as §1

[3] = tested on: polycystic human cholangiocytes; assay: CFSE proliferation protocol by flow cytometry; format: cell-based
Protocol: The proliferation of polycystic human cholangiocytes at 48 hours in the absence or presence of different doses of compound Ia (10, 50, 100, μM) in a quiescence culture medium was analyzed. To that end, the CFSE proliferation protocol (Invitrogen) was used using flow cytometry.

OCT1 = biological target: T1, OCT1 (Homo sapiens, UniProt O15245); assay: Uptake study in HepG2 cells overexpressing OCT1; format: in vitro ADME
T1 construct: expressed in transfected cells; host or cells: HepG2 cells
T1 sequence (O15245 1-554): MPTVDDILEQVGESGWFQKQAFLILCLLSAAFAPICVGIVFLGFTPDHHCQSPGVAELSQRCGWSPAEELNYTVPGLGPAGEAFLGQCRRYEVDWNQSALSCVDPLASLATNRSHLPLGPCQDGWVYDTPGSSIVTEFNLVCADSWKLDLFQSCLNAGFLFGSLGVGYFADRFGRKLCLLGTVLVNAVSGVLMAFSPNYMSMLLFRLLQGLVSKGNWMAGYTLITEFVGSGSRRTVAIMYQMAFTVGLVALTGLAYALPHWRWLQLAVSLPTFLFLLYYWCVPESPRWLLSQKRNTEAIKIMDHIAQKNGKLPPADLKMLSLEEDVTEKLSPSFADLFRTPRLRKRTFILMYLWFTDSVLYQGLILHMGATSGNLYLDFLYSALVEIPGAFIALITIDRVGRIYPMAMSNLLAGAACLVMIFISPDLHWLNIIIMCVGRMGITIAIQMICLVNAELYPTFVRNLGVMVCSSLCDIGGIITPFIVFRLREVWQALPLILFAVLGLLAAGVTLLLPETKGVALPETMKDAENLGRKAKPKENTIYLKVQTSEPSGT
Description: The bile acid and organic cation transporters expressed in hepatocytes and cholangiocytes were overexpressed in HepG2 cells (OCT1) and CHO cells (OCT3). The efficacy of the process was confirmed by means of measuring the abundance of mRNA (qPCR), protein (WB), and the correct insertion in the plasma membrane (immunofluorescence). The uptake studies included comparing the uptake efficiency of the compound with respect to dihydroethidium (DHE) in the case of OCT3, and sorafenib in the case of OCT1 (positive controls), as well as the sensitivity of the process to substrate inhibition induced by the joint administration of the compound and quinine. The cell content of all the compounds was determined by means of triple quadrupole HPLC-MS/MS after extraction thereof from the cell system used in each case.

PCK rats = assay: Chronic treatment of PCK rats (animal model of PLD), liver transaminase ALT; format: in vivo, rat; details: 7 mg/kg/day, 2 months
Protocol: PCK rats were chronically treated (2 months) with compound Ia (7 mg/kg/day).

C[C@H](CCC(=O)NCc1ccc(C(=O)NO)cc1)[C@H]1CC[C@H]2[C@@H]3[C@@H](O)C[C@@H]4C[C@H](O)CC[C@]4(C)[C@H]3CC[C@]12C [Compound Ia]
length of the cilia, polycystic human cholangiocytes [1]: significantly increased
length of the cilia, normal human cholangiocytes [2]: did not lead to any significant variations
proliferation of polycystic human cholangiocytes ([3]; 48 hours, 10, 50, 100 μM, quiescence culture medium): inhibits the hyper-proliferation of polycystic human cholangiocytes in vitro in a dose-dependent manner
inhibition of proliferation compared with UDCA ([3]; 48 hours, UDCA at 100 μM): with a higher intensity than UDCA
effect of quinine (OCT1 inhibitor) on the OCT1 transport (OCT1; joint administration with quinine): inhibited by the presence of quinine
transport through OCT1 (OCT1; liver cells (HepG2 overexpressing OCT1), HPLC-MS/MS cell content): specifically transported through OCT1
levels of liver transaminase ALT (PCK rats): significantly reduced
